Test results published in ChEMBL document CHEMBL4184305, “Inhibition of histone lysine methyltransferases G9a and GLP by ejection of structural Zn(II)” (Bioorg Med Chem Lett, 2018).
The source made the active and inactive calls. The rule behind the calls is not given here.

Experiments:
[1] = target: T1, Histone-lysine N-methyltransferase EHMT1 (Homo sapiens) (UniProt Q9H9B1); assay: Inhibition of wild type recombinant human histone lysine methyltransferase GLP (951 to 1235 residues) expressed in Escherichia coli Rosetta BL21 DE3 PlysS assessed as zinc ions ejection from Cys4-Zn finger at 2.5 to 100 uM after 500 to 3500 secs by FluoZin-3 based fluorescence assay
T1 sequence (whole entry): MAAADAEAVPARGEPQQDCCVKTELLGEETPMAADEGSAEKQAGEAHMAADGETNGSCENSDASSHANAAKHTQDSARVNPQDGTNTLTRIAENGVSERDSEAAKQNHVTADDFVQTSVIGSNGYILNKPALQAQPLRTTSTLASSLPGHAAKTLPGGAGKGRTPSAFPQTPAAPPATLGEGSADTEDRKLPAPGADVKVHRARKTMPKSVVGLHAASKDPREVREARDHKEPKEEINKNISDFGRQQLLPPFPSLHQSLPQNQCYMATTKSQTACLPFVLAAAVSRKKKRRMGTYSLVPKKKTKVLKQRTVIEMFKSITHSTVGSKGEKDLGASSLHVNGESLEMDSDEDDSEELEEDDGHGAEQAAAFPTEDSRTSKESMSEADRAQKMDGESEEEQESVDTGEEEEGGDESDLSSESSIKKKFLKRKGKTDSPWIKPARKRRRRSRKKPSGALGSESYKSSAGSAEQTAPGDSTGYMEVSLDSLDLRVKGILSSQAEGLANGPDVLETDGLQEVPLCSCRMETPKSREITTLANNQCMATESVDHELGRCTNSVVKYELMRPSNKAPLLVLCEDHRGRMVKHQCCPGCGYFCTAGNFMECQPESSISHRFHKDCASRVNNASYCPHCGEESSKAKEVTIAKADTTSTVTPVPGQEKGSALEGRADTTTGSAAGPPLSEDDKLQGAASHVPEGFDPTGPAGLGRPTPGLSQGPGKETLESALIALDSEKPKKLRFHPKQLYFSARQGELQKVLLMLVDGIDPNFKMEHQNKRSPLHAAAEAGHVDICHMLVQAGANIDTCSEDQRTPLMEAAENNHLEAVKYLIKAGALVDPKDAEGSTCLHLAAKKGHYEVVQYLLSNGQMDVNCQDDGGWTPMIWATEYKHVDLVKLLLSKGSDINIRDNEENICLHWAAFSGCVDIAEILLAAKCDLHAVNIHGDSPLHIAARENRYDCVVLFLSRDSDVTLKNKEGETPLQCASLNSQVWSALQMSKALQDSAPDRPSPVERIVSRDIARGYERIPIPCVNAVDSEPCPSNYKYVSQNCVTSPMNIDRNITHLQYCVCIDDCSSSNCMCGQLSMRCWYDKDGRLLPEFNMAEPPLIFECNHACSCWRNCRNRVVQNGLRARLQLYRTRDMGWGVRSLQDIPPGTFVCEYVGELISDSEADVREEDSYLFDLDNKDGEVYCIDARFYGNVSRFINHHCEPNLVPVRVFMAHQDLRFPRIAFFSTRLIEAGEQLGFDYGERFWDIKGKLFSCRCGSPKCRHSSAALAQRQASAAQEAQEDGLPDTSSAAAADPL

[2] = target: T1, Histone-lysine N-methyltransferase EHMT1 (Homo sapiens); assay: Inhibition of wild type recombinant human histone lysine methyltransferase GLP (951 to 1235 residues) expressed in Escherichia coli Rosetta BL21 DE3 PlysS assessed as zinc ions ejection from 3 types of Cys9-type Zn fingers at >50 uM after 1 hr by circular dichroism analysis
[3] = target: T2, Histone-lysine N-methyltransferase EHMT2 (Homo sapiens) (UniProt Q96KQ7); assay: Inhibition of wild type recombinant human histone lysine methyltransferase G9a (913 to 1193 residues) expressed in Escherichia coli Rosetta BL21 DE3 PlysS assessed as zinc ions ejection from 3 types of Cys9-type Zn fingers at >50 uM after 1 hr by circular dichroism analysis
T2 sequence (whole entry): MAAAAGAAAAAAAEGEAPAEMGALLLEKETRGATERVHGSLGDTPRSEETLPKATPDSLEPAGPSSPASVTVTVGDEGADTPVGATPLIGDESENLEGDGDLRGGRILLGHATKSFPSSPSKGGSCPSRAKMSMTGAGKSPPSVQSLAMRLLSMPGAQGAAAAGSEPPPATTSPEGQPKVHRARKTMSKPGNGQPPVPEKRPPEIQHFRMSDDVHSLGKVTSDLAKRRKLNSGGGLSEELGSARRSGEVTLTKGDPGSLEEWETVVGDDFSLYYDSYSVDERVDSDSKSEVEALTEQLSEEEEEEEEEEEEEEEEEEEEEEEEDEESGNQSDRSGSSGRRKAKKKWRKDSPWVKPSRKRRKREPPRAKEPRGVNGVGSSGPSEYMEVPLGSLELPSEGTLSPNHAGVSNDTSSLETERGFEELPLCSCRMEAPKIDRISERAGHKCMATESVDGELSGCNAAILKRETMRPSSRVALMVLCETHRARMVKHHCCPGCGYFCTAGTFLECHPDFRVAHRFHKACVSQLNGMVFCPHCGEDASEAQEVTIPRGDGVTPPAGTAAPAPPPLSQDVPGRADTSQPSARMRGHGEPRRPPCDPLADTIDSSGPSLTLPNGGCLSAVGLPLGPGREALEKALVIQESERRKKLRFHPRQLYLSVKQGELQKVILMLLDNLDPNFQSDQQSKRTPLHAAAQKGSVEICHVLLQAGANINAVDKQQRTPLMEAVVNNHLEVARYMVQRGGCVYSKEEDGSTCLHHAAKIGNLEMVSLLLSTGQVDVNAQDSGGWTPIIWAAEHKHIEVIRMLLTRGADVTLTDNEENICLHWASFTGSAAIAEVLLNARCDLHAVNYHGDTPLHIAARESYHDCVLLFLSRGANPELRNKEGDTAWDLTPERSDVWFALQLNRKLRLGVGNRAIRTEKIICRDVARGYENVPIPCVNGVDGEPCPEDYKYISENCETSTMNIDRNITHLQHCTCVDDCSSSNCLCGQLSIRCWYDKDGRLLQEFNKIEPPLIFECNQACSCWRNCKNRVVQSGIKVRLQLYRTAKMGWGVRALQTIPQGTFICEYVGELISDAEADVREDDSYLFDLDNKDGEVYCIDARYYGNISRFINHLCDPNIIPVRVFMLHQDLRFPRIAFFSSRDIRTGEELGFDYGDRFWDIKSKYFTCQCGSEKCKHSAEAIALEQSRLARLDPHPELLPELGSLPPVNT

[4] = target: T1, Histone-lysine N-methyltransferase EHMT1 (Homo sapiens); assay: Inhibition of wild type recombinant human histone lysine methyltransferase GLP (951 to 1235 residues) expressed in Escherichia coli Rosetta BL21 DE3 PlysS assessed as zinc ions ejection from Cys4-Zn finger at >50 uM after 1 hr by circular dichroism analysis
[5] = target: T1, Histone-lysine N-methyltransferase EHMT1 (Homo sapiens); assay: Inhibition of wild type recombinant human histone lysine methyltransferase GLP (951 to 1235 residues) expressed in Escherichia coli Rosetta BL21 DE3 PlysS assessed as zinc ions ejection from Cys4-Zn finger at 2.5 to 100 uM measured up to 1 min by FluoZin-3 based fluorescence assay

SMILES | inhibition [1] | inhibition [2] | inhibition [3] | inhibition [4] | inhibition [5]
CCN(CC)C(=S)SSC(=S)N(CC)CC | Active | Active | Active | Active | –
O=c1c2ccccc2[se]n1-c1ccccc1 [EBSELEN] | – | – | – | – | Active
